Data as given in paper PMC11124336 (Molecules, 2024).

Assays:
[1] = biological target: T1, Type II NADH dehydrogenase (NDH-2, NdhC) (Staphylococcus aureus, UniProt Q2FZV7); assay: NADH oxidation assay at […] nm with menadione; assay type: biochemical
T1 construct: gene SAOUHSC_00878; N-terminal 6His-tagged NDH-2 (ndhC gene from S. aureus 25923)
T1 sequence (Q2FZV7 1-402): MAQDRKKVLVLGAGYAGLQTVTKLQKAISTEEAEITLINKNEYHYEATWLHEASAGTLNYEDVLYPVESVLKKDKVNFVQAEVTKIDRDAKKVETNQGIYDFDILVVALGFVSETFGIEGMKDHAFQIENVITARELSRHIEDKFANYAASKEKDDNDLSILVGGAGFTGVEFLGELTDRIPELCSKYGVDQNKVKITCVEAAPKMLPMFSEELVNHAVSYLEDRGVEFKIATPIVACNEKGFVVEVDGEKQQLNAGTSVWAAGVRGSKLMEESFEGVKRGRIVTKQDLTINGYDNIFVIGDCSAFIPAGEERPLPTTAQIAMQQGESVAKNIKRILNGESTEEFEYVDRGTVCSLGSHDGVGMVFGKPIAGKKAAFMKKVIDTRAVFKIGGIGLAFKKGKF

[2] = biological target: T1, Type II NADH dehydrogenase (NDH-2, NdhC); assay: activity of FAD-depleted purified enzyme restored by added FAD; assay type: biochemical
[3] = substrate: NC(=O)C1=CN([C@@H]2O[C@H](COP(=O)(O)OP(=O)(O)OC[C@H]3O[C@@H](n4cnc5c(N)ncnc54)[C@H](O)[C@@H]3O)[C@@H](O)[C@H]2O)C=CC1; assay: steady-state kinetics of purified enzyme (Km); assay type: biochemical, Staphylococcus aureus; settings: FAD
[4] = substrate: CC1=CC(=O)c2ccccc2C1=O; assay: steady-state kinetics of purified enzyme (Km); assay type: biochemical, Staphylococcus aureus; settings: FAD

`CCCCCCCc1cc(O)c2ccccc2[n+]1[O-]` [HQNO, 2-heptyl-4-hydroxyquinoline-N-oxide] was tested, and the IC50 [1] was 9 µM.

For `Cc1cc2nc3c(=O)[nH]c(=O)nc-3n(C[C@H](O)[C@H](O)[C@H](O)COP(=O)(O)OP(=O)(O)OC[C@H]3O[C@@H](n4cnc5c(N)ncnc54)[C@H](O)[C@@H]3O)c2cc1C` [FAD], the “activity of FAD-depleted purified enzyme restored by added FAD” value [2] was “the addition of exogenous FAD to the reaction mix restored the NADH dehydrogenase activity of the recombinant protein”.

B1: Type II NADH dehydrogenase (NDH-2, NdhC) (Staphylococcus aureus subsp. aureus NCTC 8325) (protein)
chain: T1 sequence (Q2FZV7 1-402)
notes: N-terminal 6His-tagged NDH-2 (ndhC gene from S. aureus 25923)
B1 was tested, and the Km [3] was 90.8 ± 16.2 µM and the Km [4] was 19.9 ± 0.7 µM.
